Results on two compounds are retold here after patent US4659741A, “β-[2-(halogenobenzyl)-phenoxy]-ethylamine derivatives” (Institut de Recherches Chimiques et Biologiques Appliquees …, priority 1983, dated 1987).

One may read the LD50 as the dose expected to kill half of the subjects tested. A higher LD50 goes with a less toxic substance.

For one series, the system named is Gram+ bacteriae. The settings on record: infectious diseases caused by Gram+ bacteriae; cited from earlier work.
The conditions of series [1]: cited from earlier work.
Series [2] relates to Staphylococcus aureus London CIP A.238. In words: Minimal inhibiting concentration (MIC), Gram+ strain (Table IV). It is filed as cell-based. The note with it: Staphylococcus aureus. The text has this: (§1) A certain number of compounds according to the invention are given non-restrictively by way of illustration in tables I, II and III hereinafter. The minimal inhibiting concentrations (MIC) of these compounds vis-a-vis a Gram+bacteria (Staphylococcus aureus London) a Gram-bacteria (Escherichia coli) and a fungus (Candida albicans) are given hereinafter in table IV. In table V are tabulated the MIC values of two compounds according to the invention which are particularly interesting [compound B 673 (example 26) and compound B 674 (example 29)] vis-a-vis several strains.
(§2) The strains used are those of the catalogues of the "Institut Pasteur" of Paris (abbreviation: CIP), the "Centre International de Distribution de Souches et d'Information sur les Types Microbiens de Lausanne" (abbreviation: La) and the "American Type Culture Collection" (abbreviation: ATCC).
G^+ = Gram^+ strain: Staphylococcus aureus London CIP A.238

Series [3] relates to Escherichia coli CIP 54.8. In words: Minimal inhibiting concentration (MIC), Gram- strain (Table IV). The settings on record: CIP54. The series is classed as cell-based.
Source text: as §1, §2
G^- = Gram^- strain: Escherichia coli CIP 54.8

Series [4] relates to Candida albicans CIP 1180. The experiment in a line: Minimal inhibiting concentration (MIC), fungus strain (Table IV). It is filed as cell-based. The note with it: Candida albicans, CIP1180, Candida albicans CIP 1180.
Source text: as §1, §2
C = fungus strain: Candida albicans CIP 1180

For series [5], the system named is Bacillus subtilis ATCC 6633. The experiment in a line: MIC vis-a-vis several strains (Table V). It is filed as cell-based. The settings on record: ATCC6633.
Source text: as §1, §2

In series [6] the test system is Branhamella catarrhalis la 987. The experiment in a line: MIC vis-a-vis several strains (Table V). The series is classed as cell-based. The note with it: Moraxella catarrhalis, LA987.
Source text: as §1, §2

Series [7] deals with Corynebacterium diphteriae CIP A.102. In words: MIC vis-a-vis several strains (Table V). The series is classed as cell-based. The note with it: CIPA.102.
Source text: as §1, §2

The subject of series [8] is Diplococcus pneumoniae la 209. In words: MIC vis-a-vis several strains (Table V). It is filed as cell-based. The settings on record: Streptococcus pneumoniae, LA209.
Source text: as §1, §2

The test system of series [9] is Haemophilus influenzae CIP 5293. In words: MIC vis-a-vis several strains (Table V). It is filed as cell-based. The settings on record: CIP5293.
Source text: as §1, §2

The test system of series [10] is Klebsiella pneumoniae la 433. In words: MIC vis-a-vis several strains (Table V). The settings on record: LA433. It is filed as cell-based.
Source text: as §1, §2

For series [11], the system named is Listeria monocytogenes CIP 54153. In words: MIC vis-a-vis several strains (Table V). The series is classed as cell-based. The note with it: CIP54153.
Source text: as §1, §2

Series [12] has as its system Neisseria gonorrhoeae CIP A.52. In words: MIC vis-a-vis several strains (Table V). The note with it: CIPA.52. It is filed as cell-based.
Source text: as §1, §2

The test system of series [13] is Neisseria meningitidis CIP 7310. The experiment in a line: MIC vis-a-vis several strains (Table V). The series is classed as cell-based. The settings on record: CIP7310.
Source text: as §1, §2

Series [14] deals with Staphylococcus aureus ATCC 6538 P. The experiment in a line: MIC vis-a-vis several strains (Table V). The series is classed as cell-based. The settings on record: ATCC6538.
Source text: as §1, §2

For series [15], the system named is Streptococcus faecalis CIP 53.152. The experiment in a line: MIC vis-a-vis several strains (Table V). The series is classed as cell-based. The settings on record: Enterococcus faecalis, CIP53.
Source text: as §1, §2

For series [16], the system named is Streptococcus pyogenes CIP 56.42. The experiment in a line: MIC vis-a-vis several strains (Table V). It is filed as cell-based. The note with it: CIP56.
Source text: as §1, §2

Series [17] relates to Streptococcus pyogenes CIP 5641. The experiment in a line: MIC vis-a-vis several strains (Table V). The series is classed as cell-based. The settings on record: CIP5641.
Source text: as §1, §2

In series [18] the test system is Streptococcus pyogenes CIP A.241. In words: MIC vis-a-vis several strains (Table V). It is filed as cell-based. The note with it: CIPA.241.
Source text: as §1, §2

Series [19] concerns Streptococcus pyogenes la 147. In words: MIC vis-a-vis several strains (Table V). The note with it: LA147. It is filed as cell-based.
Source text: as §1, §2

The nature of series [20]: Toxicity, LD-50 mice (Table VI). The note with it: mouse, in vivo.

On to `CC(C)(C)CC(C)(C)c1ccc(O)c(Cc2ccc(Cl)cc2Cl)c1` [B.11, 2-(2,4-dichlorobenzyl)-4-(1,1,3,3-tetramethylbutyl)-phenol], for which the “effectiveness in the treatment of infectious diseases” value in the series on Gram+ bacteriae is “particularly effective in the treatment of infectious diseases caused by Gram+ bacteriae”. Besides, the “water solubility / dispersibility” value in series [1] is “not naturally water soluble nor water dispersible”.
For the compound `CC[N+](CC)(CCOc1ccc(C(C)(C)C)cc1Cc1ccc(Cl)cc1Cl)Cc1ccccc1` [Example 29, N,N-diethyl-N-{2-[2-(2,4-dichlorobenzyl)-tertiobutylphenoxy]-ethyl}-N-benzylammonium chloride], the MIC was determined as 0.015 µg/mL in series [2]; 4 µg/mL in [3]; 0.125 µg/mL in series [4]; 0.78 µg/mL in [5]; 0.78 µg/mL in [6]; 3.12 µg/mL in series [7]. For the same compound, the MIC in [8] worked out at 0.78 µg/mL; in [9] it was 0.78 µg/mL; in series [10], 6.25 µg/mL; in series [11] it was 0.78 µg/mL; in [12], 0.78 µg/mL; in [13], 0.78 µg/mL. For the same compound, the MIC in [14], in [15], in series [16], in series [17], in [18] and in [19] was 0.78 µg/mL in each case. The compound also showed an LD50 in series [20] greater than 1000 mg/kg.
